Results as given in patent publication US20100242139A1, “XENOHORMESIS BASED COMPOSITIONS AND METHODS” (President and Fellows of Harvard College, priority 2006, published 2010).

Tests used:
Assay type in all cases: biochemical
Details in all cases: compound at 20 μM; vs reference with no compound
CDK1/cyclinB(h) = CDK1/cyclinB(h) (Homo sapiens, UniProt P06493); assay: kinase panel activity, CDK1/cyclinB(h)
JNK1α1(h) = JNK1α1(h) (Homo sapiens, UniProt P45983); assay: kinase panel activity, JNK1α1(h)
MEK1(h) = MEK1(h) (Homo sapiens, UniProt Q02750); assay: kinase panel activity, MEK1(h)
IGF-1R(h) = IGF-1R(h) (Homo sapiens, UniProt P08069); assay: kinase panel activity, IGF-1R(h)
PDGFRβ(h) = PDGFRβ(h) (Homo sapiens, UniProt P09619); assay: kinase panel activity, PDGFRβ(h)
TAK1(h) = TAK1(h) (Homo sapiens, UniProt O43318); assay: kinase panel activity, TAK1(h)
CHK2(h) = CHK2(h) (Homo sapiens, UniProt O96017); assay: kinase panel activity, CHK2(h)
SGK(h) = SGK(h) (Homo sapiens, UniProt O00141); assay: kinase panel activity, SGK(h)
PAK4(h) = PAK4(h) (Homo sapiens, UniProt O96013); assay: kinase panel activity, PAK4(h)
Aurora-A(h) = Aurora-A(h) (Homo sapiens, UniProt O14965); assay: kinase panel activity, Aurora-A(h)
PKCα(h) = PKCα(h) (Homo sapiens, UniProt P17252); assay: kinase panel activity, PKCα(h)
Fgr(h) = Fgr(h) (Homo sapiens, UniProt P09769); assay: kinase panel activity, Fgr(h)
PAK6(h) = PAK6(h) (Homo sapiens, UniProt Q9NQU5); assay: kinase panel activity, PAK6(h)
EphB2(h) = EphB2(h) (Homo sapiens, UniProt P29323); assay: kinase panel activity, EphB2(h)
Pim-1(h) = Pim-1(h) (Homo sapiens, UniProt P11309); assay: kinase panel activity, Pim-1(h)
EGFR(h) = EGFR(h) (Homo sapiens, UniProt P00533); assay: kinase panel activity, EGFR(h)
CDK2/cyclinA(h) = CDK2/cyclinA(h) (Homo sapiens, UniProt P24941); assay: kinase panel activity, CDK2/cyclinA(h)
JNK2α2(h) = JNK2α2(h) (Homo sapiens, UniProt P45984); assay: kinase panel activity, JNK2α2(h)
IKKα(h) = IKKα(h) (Homo sapiens, UniProt O15111); assay: kinase panel activity, IKKα(h)
Flt1(h) = Flt1(h) (Homo sapiens, UniProt P17948); assay: kinase panel activity, Flt1(h)
Snk(h) = Snk(h) (Homo sapiens, UniProt Q9NYY3); assay: kinase panel activity, Snk(h)
Fms(h) = Fms(h) (Homo sapiens, UniProt P07333); assay: kinase panel activity, Fms(h)
MST2(h) = MST2(h) (Homo sapiens, UniProt Q13188); assay: kinase panel activity, MST2(h)
cSRC(h) = cSRC(h) (Homo sapiens, UniProt P12931); assay: kinase panel activity, cSRC(h)
FGFR1(h) = FGFR1(h) (Homo sapiens, UniProt P11362); assay: kinase panel activity, FGFR1(h)
Tie2(h) = Tie2(h) (Homo sapiens, UniProt Q02763); assay: kinase panel activity, Tie2(h)
SAPK2a(h) = SAPK2a(h) (Homo sapiens, UniProt Q16539); assay: kinase panel activity, SAPK2a(h)
LIMK1(h) = LIMK1(h) (Homo sapiens, UniProt P53667); assay: kinase panel activity, LIMK1(h)
GSK3α(h) = GSK3α(h) (Homo sapiens, UniProt P49840); assay: kinase panel activity, GSK3α(h)
SAPK2a(T106M)(h) = SAPK2a(T106M)(h) (Homo sapiens, UniProt Q16539, T106M); assay: kinase panel activity, SAPK2a(T106M)(h)
ZAP-70(h) = ZAP-70(h) (Homo sapiens, UniProt P43403); assay: kinase panel activity, ZAP-70(h)
SIK(h) = SIK(h) (Homo sapiens, UniProt P57059); assay: kinase panel activity, SIK(h)
IRAK1(h) = IRAK1(h) (Homo sapiens, UniProt P51617); assay: kinase panel activity, IRAK1(h)
CSK(h) = CSK(h) (Homo sapiens, UniProt P41240); assay: kinase panel activity, CSK(h)
SAPK3(h) = SAPK3(h) (Homo sapiens, UniProt P53778); assay: kinase panel activity, SAPK3(h)
Met(h) = Met(h) (Homo sapiens, UniProt P08581); assay: kinase panel activity, Met(h)
cKit(h) = cKit(h) (Homo sapiens, UniProt P10721); assay: kinase panel activity, cKit(h)
CDK5/p35(h) = CDK5/p35(h) (Homo sapiens, UniProt Q00535); assay: kinase panel activity, CDK5/p35(h)
ALK(h) = ALK(h) (Homo sapiens, UniProt Q9UM73); assay: kinase panel activity, ALK(h)
NEK6(h) = NEK6(h) (Homo sapiens, UniProt Q9HC98); assay: kinase panel activity, NEK6(h)

Chain of cSRC(h) (P12931 whole entry): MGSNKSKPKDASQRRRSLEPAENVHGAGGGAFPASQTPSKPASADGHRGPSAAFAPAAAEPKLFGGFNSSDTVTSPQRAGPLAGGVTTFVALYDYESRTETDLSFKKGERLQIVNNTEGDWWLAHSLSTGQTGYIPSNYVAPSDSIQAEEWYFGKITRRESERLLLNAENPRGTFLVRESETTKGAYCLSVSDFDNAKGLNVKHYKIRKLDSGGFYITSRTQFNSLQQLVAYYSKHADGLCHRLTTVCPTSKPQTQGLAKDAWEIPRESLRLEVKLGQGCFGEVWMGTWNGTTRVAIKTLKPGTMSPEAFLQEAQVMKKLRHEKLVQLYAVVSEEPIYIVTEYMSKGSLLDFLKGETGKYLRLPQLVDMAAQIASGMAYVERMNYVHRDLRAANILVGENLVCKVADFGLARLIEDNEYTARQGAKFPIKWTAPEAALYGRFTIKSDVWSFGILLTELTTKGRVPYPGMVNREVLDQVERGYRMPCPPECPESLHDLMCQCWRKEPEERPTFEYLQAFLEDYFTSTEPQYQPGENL
Chain of Tie2(h) (Q02763 23-1124): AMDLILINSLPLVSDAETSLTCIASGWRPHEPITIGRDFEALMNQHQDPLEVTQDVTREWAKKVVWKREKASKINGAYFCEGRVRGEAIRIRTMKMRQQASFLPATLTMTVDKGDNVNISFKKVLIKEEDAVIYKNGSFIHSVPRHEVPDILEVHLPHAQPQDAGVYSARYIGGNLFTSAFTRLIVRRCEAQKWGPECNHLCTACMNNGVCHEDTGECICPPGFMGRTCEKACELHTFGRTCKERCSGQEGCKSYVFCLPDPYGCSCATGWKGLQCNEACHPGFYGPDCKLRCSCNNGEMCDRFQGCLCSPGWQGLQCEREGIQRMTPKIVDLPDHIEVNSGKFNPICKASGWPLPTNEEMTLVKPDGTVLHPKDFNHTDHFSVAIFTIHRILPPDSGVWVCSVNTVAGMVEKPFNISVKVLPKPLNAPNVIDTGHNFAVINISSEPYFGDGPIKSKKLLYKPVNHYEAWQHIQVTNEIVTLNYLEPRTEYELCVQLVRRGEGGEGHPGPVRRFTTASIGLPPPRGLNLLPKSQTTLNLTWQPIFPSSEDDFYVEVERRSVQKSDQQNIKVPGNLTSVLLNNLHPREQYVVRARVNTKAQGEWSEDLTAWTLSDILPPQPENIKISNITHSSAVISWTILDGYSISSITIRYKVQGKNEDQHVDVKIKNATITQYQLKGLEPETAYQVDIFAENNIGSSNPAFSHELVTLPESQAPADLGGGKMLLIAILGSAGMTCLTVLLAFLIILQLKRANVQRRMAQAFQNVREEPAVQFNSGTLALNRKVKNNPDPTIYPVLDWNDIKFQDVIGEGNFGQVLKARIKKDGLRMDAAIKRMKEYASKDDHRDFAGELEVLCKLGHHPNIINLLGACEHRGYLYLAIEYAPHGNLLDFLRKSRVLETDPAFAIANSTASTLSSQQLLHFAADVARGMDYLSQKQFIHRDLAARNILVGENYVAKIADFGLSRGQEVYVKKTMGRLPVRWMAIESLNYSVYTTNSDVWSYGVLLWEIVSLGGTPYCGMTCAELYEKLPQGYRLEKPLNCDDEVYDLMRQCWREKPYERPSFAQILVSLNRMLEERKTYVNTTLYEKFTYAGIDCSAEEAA
Chain of FGFR1(h) (P11362 22-822): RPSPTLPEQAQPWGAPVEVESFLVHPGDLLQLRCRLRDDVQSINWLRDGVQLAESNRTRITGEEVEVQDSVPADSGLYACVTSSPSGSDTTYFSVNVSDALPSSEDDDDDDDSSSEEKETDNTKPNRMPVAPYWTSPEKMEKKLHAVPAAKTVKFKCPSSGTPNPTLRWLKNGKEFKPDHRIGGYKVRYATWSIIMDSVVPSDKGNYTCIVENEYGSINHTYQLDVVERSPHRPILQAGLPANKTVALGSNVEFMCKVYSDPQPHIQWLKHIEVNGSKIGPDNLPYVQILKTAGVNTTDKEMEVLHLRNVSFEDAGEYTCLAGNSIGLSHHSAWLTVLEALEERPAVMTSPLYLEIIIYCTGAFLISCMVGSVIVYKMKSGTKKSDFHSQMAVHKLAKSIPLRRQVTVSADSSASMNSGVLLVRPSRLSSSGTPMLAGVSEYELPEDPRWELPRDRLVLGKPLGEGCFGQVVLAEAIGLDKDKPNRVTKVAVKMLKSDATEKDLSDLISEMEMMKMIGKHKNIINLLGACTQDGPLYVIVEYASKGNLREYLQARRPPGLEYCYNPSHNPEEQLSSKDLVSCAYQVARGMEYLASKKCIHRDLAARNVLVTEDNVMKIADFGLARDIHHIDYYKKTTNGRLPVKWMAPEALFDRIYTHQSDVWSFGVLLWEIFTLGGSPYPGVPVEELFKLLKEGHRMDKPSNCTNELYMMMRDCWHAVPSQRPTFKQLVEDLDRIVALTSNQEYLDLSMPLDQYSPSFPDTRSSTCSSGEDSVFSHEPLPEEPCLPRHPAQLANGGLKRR
Chain of Snk(h) (Q9NYY3 whole entry): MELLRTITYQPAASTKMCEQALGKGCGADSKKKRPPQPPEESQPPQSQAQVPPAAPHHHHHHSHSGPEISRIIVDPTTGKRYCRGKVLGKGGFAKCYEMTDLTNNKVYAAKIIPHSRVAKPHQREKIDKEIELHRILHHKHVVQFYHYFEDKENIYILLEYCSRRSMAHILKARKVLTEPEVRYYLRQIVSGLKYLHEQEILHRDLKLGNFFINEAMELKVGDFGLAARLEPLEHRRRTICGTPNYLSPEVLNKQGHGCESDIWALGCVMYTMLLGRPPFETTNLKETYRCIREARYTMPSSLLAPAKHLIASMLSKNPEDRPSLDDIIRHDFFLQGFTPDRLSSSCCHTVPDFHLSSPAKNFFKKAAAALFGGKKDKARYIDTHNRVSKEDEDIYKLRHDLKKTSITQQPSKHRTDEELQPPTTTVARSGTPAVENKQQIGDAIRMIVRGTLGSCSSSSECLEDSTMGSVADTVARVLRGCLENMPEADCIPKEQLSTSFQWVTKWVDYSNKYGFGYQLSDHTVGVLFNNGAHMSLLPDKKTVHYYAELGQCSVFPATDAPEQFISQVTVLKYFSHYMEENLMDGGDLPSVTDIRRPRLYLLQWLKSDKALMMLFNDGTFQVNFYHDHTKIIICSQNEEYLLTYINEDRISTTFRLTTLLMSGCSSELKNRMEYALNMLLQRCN
Chain of Fgr(h) (P09769 whole entry): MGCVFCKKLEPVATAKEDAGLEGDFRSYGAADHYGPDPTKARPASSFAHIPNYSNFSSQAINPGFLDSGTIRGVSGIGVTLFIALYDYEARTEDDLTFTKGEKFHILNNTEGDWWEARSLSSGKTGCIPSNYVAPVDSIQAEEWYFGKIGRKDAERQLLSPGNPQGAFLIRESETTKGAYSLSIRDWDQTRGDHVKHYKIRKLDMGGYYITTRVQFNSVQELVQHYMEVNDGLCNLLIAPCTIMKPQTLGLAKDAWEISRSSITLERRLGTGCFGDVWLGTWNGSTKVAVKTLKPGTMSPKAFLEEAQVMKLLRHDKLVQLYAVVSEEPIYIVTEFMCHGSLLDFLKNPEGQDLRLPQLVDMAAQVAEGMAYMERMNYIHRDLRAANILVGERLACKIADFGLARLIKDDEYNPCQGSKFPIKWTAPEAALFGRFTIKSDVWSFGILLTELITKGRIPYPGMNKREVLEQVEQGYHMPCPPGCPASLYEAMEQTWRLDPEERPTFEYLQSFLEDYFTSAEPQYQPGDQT
Chain of SAPK2a(h) (Q16539 whole entry): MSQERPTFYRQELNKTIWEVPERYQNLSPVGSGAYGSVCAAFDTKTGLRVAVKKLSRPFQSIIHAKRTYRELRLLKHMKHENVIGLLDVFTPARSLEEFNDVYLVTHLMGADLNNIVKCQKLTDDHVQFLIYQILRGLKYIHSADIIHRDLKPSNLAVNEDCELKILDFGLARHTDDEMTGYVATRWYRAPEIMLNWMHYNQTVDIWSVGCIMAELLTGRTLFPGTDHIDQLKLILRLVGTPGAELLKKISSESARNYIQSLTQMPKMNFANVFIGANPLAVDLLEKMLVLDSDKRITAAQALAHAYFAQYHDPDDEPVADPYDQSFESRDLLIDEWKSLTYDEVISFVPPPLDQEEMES
Chain of SAPK2a(T106M)(h) (Q16539 whole entry T106M): as the sequence (Q16539 whole entry) above, with T106M counted along it
Chain of JNK2α2(h) (P45984 whole entry): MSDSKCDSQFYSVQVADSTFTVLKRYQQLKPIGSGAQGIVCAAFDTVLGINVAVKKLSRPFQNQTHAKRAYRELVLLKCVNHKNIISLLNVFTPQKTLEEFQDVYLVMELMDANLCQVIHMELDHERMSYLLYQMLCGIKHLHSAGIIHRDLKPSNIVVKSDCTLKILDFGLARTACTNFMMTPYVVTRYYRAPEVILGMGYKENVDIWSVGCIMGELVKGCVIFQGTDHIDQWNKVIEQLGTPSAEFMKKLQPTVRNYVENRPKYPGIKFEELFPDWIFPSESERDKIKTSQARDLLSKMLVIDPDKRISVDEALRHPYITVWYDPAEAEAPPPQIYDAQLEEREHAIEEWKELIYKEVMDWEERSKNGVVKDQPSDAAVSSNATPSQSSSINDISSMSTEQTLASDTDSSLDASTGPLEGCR
Chain of JNK1α1(h) (P45983 1-384 isoform P45983-2): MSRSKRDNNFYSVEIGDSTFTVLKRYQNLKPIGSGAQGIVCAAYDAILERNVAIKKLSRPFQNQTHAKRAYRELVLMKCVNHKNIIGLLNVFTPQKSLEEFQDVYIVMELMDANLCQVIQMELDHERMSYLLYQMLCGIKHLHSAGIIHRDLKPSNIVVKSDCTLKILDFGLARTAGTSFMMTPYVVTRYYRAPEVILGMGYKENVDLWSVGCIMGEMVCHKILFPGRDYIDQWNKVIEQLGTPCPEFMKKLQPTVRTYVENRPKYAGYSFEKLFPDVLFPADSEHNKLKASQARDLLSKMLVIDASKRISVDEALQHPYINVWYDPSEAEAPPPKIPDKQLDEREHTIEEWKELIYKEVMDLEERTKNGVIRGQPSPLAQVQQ

Row | SMILES | percent activity of CDK1/cyclinB(h) (CDK1/cyclinB(h)) [%] | percent activity of JNK1α1(h) (JNK1α1(h)) [%] | percent activity of MEK1(h) (MEK1(h)) [%] | percent activity of IGF-1R(h) (IGF-1R(h)) [%] | percent activity of PDGFRβ(h) (PDGFRβ(h)) [%] | percent activity of TAK1(h) (TAK1(h)) [%] | percent activity of CHK2(h) (CHK2(h)) [%] | percent activity of SGK(h) (SGK(h)) [%] | percent activity of PAK4(h) (PAK4(h)) [%] | percent activity of Aurora-A(h) (Aurora-A(h)) [%] | percent activity of PKCα(h) (PKCα(h)) [%] | percent activity of Fgr(h) (Fgr(h)) [%] | percent activity of PAK6(h) (PAK6(h)) [%] | percent activity of EphB2(h) (EphB2(h)) [%] | percent activity of Pim-1(h) (Pim-1(h)) [%] | percent activity of EGFR(h) (EGFR(h)) [%] | percent activity of CDK2/cyclinA(h) (CDK2/cyclinA(h)) [%] | percent activity of JNK2α2(h) (JNK2α2(h)) [%] | percent activity of IKKα(h) (IKKα(h)) [%] | percent activity of Flt1(h) (Flt1(h)) [%] | other results
1 | Oc1ccc(C=Cc2cc(O)cc(O)c2)cc1 [resveratrol, 3,5,4′-trihydroxystilbene] | 67 | 89 | 110 | 75 | 119 | 105 | 59 | 86 | 103 | 65 | 114 | 78 | 103 | 113 | 6 | 90 | 80 | 110 | 40 | 52 | percent activity of Snk(h) (Snk(h)): 81%; percent activity of Fms(h) (Fms(h)): 61%; percent activity of MST2(h) (MST2(h)): 73%; percent activity of cSRC(h) (cSRC(h)): 61%; percent activity of FGFR1(h) (FGFR1(h)): 58%; percent activity of Tie2(h) (Tie2(h)): 94%; percent activity of SAPK2a(h) (SAPK2a(h)): 100%; percent activity of LIMK1(h) (LIMK1(h)): 84%; percent activity of GSK3α(h) (GSK3α(h)): 79%; percent activity of SAPK2a(T106M)(h) (SAPK2a(T106M)(h)): 102%; percent activity of ZAP-70(h) (ZAP-70(h)): 141%; percent activity of SIK(h) (SIK(h)): 76%; percent activity of IRAK1(h) (IRAK1(h)): 97%; percent activity of CSK(h) (CSK(h)): 94%; percent activity of SAPK3(h) (SAPK3(h)): 110%; percent activity of Met(h) (Met(h)): 114%; percent activity of cKit(h) (cKit(h)): 68%; percent activity of CDK5/p35(h) (CDK5/p35(h)): 77%; percent activity of ALK(h) (ALK(h)): 39%; percent activity of NEK6(h) (NEK6(h)): 140%
2 | O=C(O)[C@H]1O[C@@H](Oc2ccc(/C=C/c3cc(O)cc(O)c3)cc2)[C@H](O)[C@@H](O)[C@@H]1O [Res 4′-Gluc, resveratrol-4-glucuronide] | 104 | 91 | 120 | 87 | 119 | 113 | 95 | 48 | 107 | 33 | 100 | 67 | 128 | 109 | 31 | 106 | 98 | 123 | 113 | 76 | percent activity of Snk(h) (Snk(h)): 87%; percent activity of Fms(h) (Fms(h)): 94%; percent activity of MST2(h) (MST2(h)): 120%; percent activity of cSRC(h) (cSRC(h)): 54%; percent activity of FGFR1(h) (FGFR1(h)): 45%; percent activity of Tie2(h) (Tie2(h)): 76%; percent activity of SAPK2a(h) (SAPK2a(h)): 107%; percent activity of LIMK1(h) (LIMK1(h)): 91%; percent activity of GSK3α(h) (GSK3α(h)): 57%; percent activity of SAPK2a(T106M)(h) (SAPK2a(T106M)(h)): 109%; percent activity of ZAP-70(h) (ZAP-70(h)): 125%; percent activity of SIK(h) (SIK(h)): 74%; percent activity of IRAK1(h) (IRAK1(h)): 100%; percent activity of CSK(h) (CSK(h)): 100%; percent activity of SAPK3(h) (SAPK3(h)): 106%; percent activity of Met(h) (Met(h)): 122%; percent activity of cKit(h) (cKit(h)): 100%; percent activity of CDK5/p35(h) (CDK5/p35(h)): 104%; percent activity of ALK(h) (ALK(h)): 87%; percent activity of NEK6(h) (NEK6(h)): 107%
